Tested on: bacteria
Test: Summary of bacterial counting, Tables 1 to 4
Type: cell-based
Conditions: carbon dioxide gas 10 to 45 cm^3 per 100 g of the food (volume at 0° C. and 1 atm)
Protocol: The bacteria counts were determined as follows. The sliced beef was diluted with a tenfold amount of sterile physiological saline to give a test liquid. One (1) ml of the test liquid was placed in sterile Petri dishes. For the viable bacteria count, a standard agar medium (manufactured by NISSUI PHARMACEUTICAL CO., LTD.) was added and the bacteria were cultured at 37° C. for 2 days. For the coliform bacteria count, a desoxycholate agar medium (manufactured by NISSUI PHARMACEUTICAL CO., LTD.) was added and the bacteria were cultured at 37° C. for 1 day. The colonies that grew were counted. The psychrophilic bacteria count was determined as follows. The sliced pork was diluted with a tenfold amount of sterile physiological saline to give a test liquid. One (1) ml of the test liquid was placed in sterile Petri dishes. A YGA agar medium (manufactured by NISSUI PHARMACEUTICAL CO., LTD.) was added and the bacteria were cultured at 10° C. for 5 days. The colonies that grew were counted.

In the case of O=C=O [carbon dioxide gas, carbon dioxide], the bacterial growth is reported as “inhibits bacterial growth”.

From patent publication US20140041337A1, “Food Packaging Method” (Kureha Corporation, priority 2007, published 2014)
